Laboratory results: publication PMC3384541 (Cancer discovery, 2012)

Experiments:
[1] = test system: HCC1954 tumors; experiment: Xenograft tumor growth; type: in vivo, mice; conditions: PTEN wild-type
[2] = test system: HCC70, MDA-MB-468, BT549 and PC3 cell lines; experiment: Western blot of AKT phosphorylation in PTEN-null cancer cell lines; type: cell-based, human
[3] = test system: HMEC-CA-p110α, HMEC-CA-p110β, HMEC-CA-p110δ; type: cell-based, human; conditions: isogenic HMEC-CA-p110 lines, serum-free, western blot
[4] = test system: HCC70 tumors; experiment: Xenograft tumor growth; type: in vivo, mice; conditions: PTEN-deficient; IP, 20 mg/kg, BID
[5] = test system: panel of 422 cancer cell lines; experiment: High-throughput cell viability assay; type: cell-based, human; conditions: threshold EC50 < 5 µM, 72 h treatment
[6] = test system: panel of 433 kinases; experiment: KinomeScan kinase selectivity profile; type: binding; conditions: 10 µM
[7] = test system: Rat1-CA-p110α tumors; experiment: Xenograft tumor growth; type: in vivo, mice; conditions: IP 20 mg/kg once or twice daily
[8] = test system: PC3 tumors; experiment: Xenograft tumor growth; type: in vivo, mice; conditions: PTEN-deficient; IP, 20 mg/kg, BID
[9] = test system: Rat1-CA-p110α tumors; experiment: In vivo pharmacodynamics, pAKT in tumor lysates; parameters: species or system mice; conditions: after single IP injection 10 mg/kg
[10] = test system: Rat1-CA-p110β tumors; experiment: In vivo pharmacodynamics, pAKT in tumor lysates; parameters: species or system mice; conditions: 1 hour after single IP injection 10 mg/kg
[11] = test system: Rat1-CA-p110β tumors; experiment: Xenograft tumor growth; type: in vivo, mice; conditions: IP 20 mg/kg once or twice daily
[12] = In vivo pharmacokinetics; parameters: species or system mice
[13] = test system: HMEC-CA-p110β; experiment: BacMam-enabled LanthaScreen cellular assay; type: cell-based; conditions: Homo sapiens, read-out: IC50 in cell culture
[14] = single IP injection 10 mg/kg, tumor-bearing mice

## CS(=O)(=O)N1CCN(Cc2cc3nc(-c4cccc5[nH]ncc45)nc(N4CCOCC4)c3s2)CC1 [GDC-0941, reference compound]
[1]; PO, 150 mg/kg, QD
  tumor growth: responded to treatment

## Cc1ccccc1-n1c(Cn2cnc3c(N)ncnc32)nc2cccc(C)c2c1=O [IC87114]
[2]
  effect on AKT phosphorylation: had much less effect
[3]
  inhibition of phosphorylation of AKT at Thr308 and Ser473: in a dose-dependent manner

## Cc1cc([C@@H](C)Nc2ccccc2C(=O)O)c2nc(N3CCOCC3)cc(=O)n2c1 [KIN-193, (−)2-[1-(7-Me-2-(morpholin-4-yl)-4-oxo-4H-pyrido[1,2-a]pyrimidin-9-yl)ethylamino]benzoic acid]
[4]
  tumor growth: significantly inhibited tumor growth
[5]; 20 out of 57 lines
  cell lines with PTEN mutations sensitive to compound: 35%
[5]; 58 out of 365 lines
  cell lines with wild-type PTEN sensitive to compound: 16%
[1]; IP, 20 mg/kg, BID
  tumor growth: failed to block the growth
[6]
  inhibitor-kinase interaction profile: highly selective in its interaction with PI3Ks
[7]
  tumor growth: little effect
[2]
  effect on AKT phosphorylation: significantly inhibited AKT phosphorylation
[8]
  tumor growth: significantly inhibited tumor growth
[9]
  phosphorylation of AKT in tumor lysates: remained unchanged
[10]
  phosphorylation of AKT in tumor lysates: significantly reduced
[11]
  tumor growth: significantly impaired
[12]; Mus musculus, read-out: IC50 / level reached in vivo
  IC50: ≤ 1000 nM
[12]; mice
  optimal route for robust in vivo exposure: intraperitoneal (IP) delivery to be the optimal route
[12]; single IP injection 10 mg/kg
  concentrations in CA-p110α- and CA-p110β-driven tumors: paralleled the plasma concentrations
[12]; [14]
  time by which plasma concentration declined to undetectable levels: ≤ 4 h
  time of highest plasma concentration: 1 h
[13]
  IC50: 100 to 500 nM

## Cc1ccc([N+](=O)[O-])cc1S(=O)(=O)N(C)/N=C/c1cnc2ccc(Br)cn12 [PIK-75]
[2]
  effect on AKT phosphorylation: had much less effect
[3]
  inhibition of phosphorylation of AKT at Thr308 and Ser473: in a dose-dependent manner

## Cc1cc(C(C)Nc2ccccc2)c2nc(N3CCOCC3)cc(=O)n2c1 (centres unmarked) [TGX-221]
[3]
  inhibition of phosphorylation of AKT at Thr308 and Ser473: in a dose-dependent manner
